This note sets out measurements from patent US7105527B2, “N4-acylcytosine nucleosides for treatment of viral infections” (priority 2001, dated 2006).

Holding throughout (type): cell-based
Data set [1] has as its system CEM (human lymphoblastoid) cells. Nature of the data set: Cytotoxicity assay in CEM cells. To be noted: Table 2, read-out: Cytotoxicity in different cells (IC50, μM) CEM. The method in brief: (§1)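 Compound toxicity measured in each cell type, with cycloheximide as positive cytotoxic control and solvent-exposed untreated cells as negative control. Cytotoxicity IC50 derived from concentration-response curves by the median effective method.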

In a further data set the test system is HIV-1NL4-3. Nature of the data set: Anti-HIV assay in MT-4 cells, consensus p24 assay. The conditions noted are these: Table 2, read-out: Anti-HIV-1 activity in different cells (EC90, μM) MT-4. Here is the method: In a second antiviral testing system, the potency of the compounds was determined by measurement of viral RNA accumulation in HIV-1RF infected MT-2 cells (Bacheler L T, Paul M, Otto M J, Jadhav P K, Stone B A & Miller J A (1994) An assay for HIV RNIn infected cell lysates, and its use for rapid evaluation of antiviral efficacy. Antivir. Chem. Chemother. 5:111–121). The virus titer was established to determine the dilution producing 15 to 30 ng/RNA per well of HIV RNIn 3 days of infection. HIV-1 RNA was quantified using biotinylated capture and alkaline phosphatase-derivatized reporter oligonucleotides as described previously (Charvet A-S, Camplo M, Faury P, Graciet J C, Mourier N, Chermann J C & Kraus J L (1994) Inhibition of human immunodeficiency virus type 1 replication by phosphonoformate- and phosphonoacetate-2′,3′-dideoxy-3′-thiacytidine conjugates. J. Med. Chem. 37:2216–2223). In a third system, the effect of analogs on the replication of HIV-1NL4-3 was determined via the InterCompany Consortium consensus p24 assay as previously described (Jadhav P K & MacKay M F (1997) Cyclic urea amide: HIV-1 protease inhibitors with low nanomolar potency against both wild types and protease inhibitor resistant mutants of HIV. J. Med. Chem. 40:181–190). Recombinant viruses were recovered by transfecting the appropriate NL4-3 plasmid by lipofection. Virus stocks recovered 7 to 10 days post-transfection were titered on MT-4 cells to determine if the dilution produced 1,000 to 3,000 ng p24 in 4 days. This dilution was then used in drug susceptibility assays, where drug was added 24 h post infection of cells, and p24 quantified by ELISA 3 days later.

The next data set relates to MT-2 cells. Nature of the data set: Cytotoxicity assay in MT-2 cells. To be noted: Table 2, read-out: Cytotoxicity in different cells (IC50, μM) MT-2. The method in brief:
as §1

Another data set relates to HIV-1LAl. The data set is described as follows: Anti-HIV (in PBM cells) assay, reverse transcriptase readout. The conditions noted are these: Table 2, read-out: Anti-HIV-1 activity in different cells (EC90, μM) PBM. The method in brief:
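Human PBM cells infected with HIV-1; compounds diluted from DMSO stocks into growth medium, AZT as positive control. Virus in supernatant quantified day 6 post-infection by reverse transcriptase assay with (rA)n.(dT)12.18 template-primer; EC50 and EC90 from concentration-response curves by median effective method.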

A further data set deals with human PBM cells. The data set is described as follows: Cytotoxicity assay in PBM cells. The conditions noted are these: Table 2, read-out: Cytotoxicity in different cells (IC50, μM) PBM. In a few lines: as §1
The subject of another data set is HepG2 cells. Nature of the data set: Cytotoxicity assay in HepG2 cells. To be noted: Table 2, read-out: Cytotoxicity in different cells (IC50, μM) HepG2. In a few lines: as §1
For a further data set, the system named is HIV-1RF. Nature of the data set: Anti-HIV (in MT-2 cells) assay, viral RNA accumulation. The conditions noted are these: Table 2; EC90; MT-2 cells; read-out: Anti-HIV-1 activity in different cells (EC90, μM) MT-2. In a few lines: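 HIV-1RF in MT-2 cells: viral RNA quantified after 3 days of infection by biotinylated capture/alkaline phosphatase reporter oligonucleotides. HIV-1NL4-3 recombinant virus in MT-4 cells: drug added 24 h post-infection, p24 measured by ELISA 3 days later.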

For another data set, the system named is Vero cells. Nature of the data set: Cytotoxicity assay in Vero cells. The conditions noted are these: Table 2, read-out: Cytotoxicity in different cells (IC50, μM) Vero. In a few lines: as §1

Take `O=C(Nc1nc(=O)n([C@H]2C=C[C@@H](CO)O2)cc1F)c1cccc(Cl)c1` [Compound 40, β-D-N^4-(3-Chlorobenzoyl)-2′,3′-didehydro-2,3′-dideoxy-5-fluorocytidine]: the IC50 in data set [1] was 11.2 µM; in the data set on MT-2 cells it was over 50 µM; with human PBM cells, 45.3 µM; with HepG2 cells, 32.4 µM; with Vero cells it was 100 µM. Further, the results for the EC90 in the data set on HIV-1NL4-3, with HIV-1LAl and in the data set on HIV-1RF were 3.4 µM, 1.71 µM and 2 µM, respectively.

On to `O=C(Nc1nc(=O)n([C@H]2C=C[C@@H](CO)O2)cc1F)c1cccc(Br)c1` [Compound 41, β-D-N^4-(3-Bromobenzoyl)-2′,3′-didehydro-2′,3′-dideoxy-5-fluorocytidine], for which the IC50 is 24.9 µM in data set [1]; over 50 µM in the data set on MT-2 cells; 51.6 µM in the data set on human PBM cells; over 100 µM in the data set with HepG2 cells; 99.7 µM with Vero cells. The figures for the concentration for an effect of 90% (EC90) with HIV-1NL4-3, in the data set on HIV-1LAl and in the data set on HIV-1RF were 2.2 µM, 1.71 µM and 1 µM, respectively.

As to `CCc1ccc(C(=O)Nc2nc(=O)n([C@H]3C=C[C@@H](CO)O3)cc2F)cc1` [Compound 51, β-D-2′,3′-Didehydro-2′,3′-dideoxy-N^4-(4-ethyllbenzoyl)-5-fluorocytidine], the IC50 is 8.1 µM in data set [1]; over 50 µM in the data set on MT-2 cells; 13 µM in the data set with human PBM cells; over 100 µM in the data set with HepG2 cells; 40.3 µM in the data set with Vero cells. Moreover, the EC90 with HIV-1NL4-3 worked out at 2.3 µM; in the data set with HIV-1LAl it was 6.2 µM; with HIV-1RF, 0.24 µM.

`CC(C)(C)c1ccc(C(=O)Nc2nc(=O)n([C@H]3C=C[C@@H](CO)O3)cc2F)cc1` [Compound 53, β-D-N^4-(4-tert-Butylbenzoyl)-2′,3′-didehydro-2′,3′-dideoxy-5-fluorocytidine]: the IC50 was 9.9 µM in data set [1]; over 50 µM with MT-2 cells; 5 µM with human PBM cells; over 100 µM with HepG2 cells; 59.2 µM in the data set on Vero cells. For the same molecule, the concentration for an effect of 90% (EC90) worked out at 1.1 µM in the data set with HIV-1NL4-3, 0.41 µM in the data set on HIV-1LAl and 0.13 µM in the data set on HIV-1RF.

For the molecule `CCCC(=O)Nc1nc(=O)n([C@H]2C=C[C@@H](CO)O2)cc1F` [Compound 60, β-D-N^4-Butyryl-2′,3′-didehydro-2′,3′-dideoxy-5-fluorocytidine], the IC50 in data set [1] is 12.2 µM; with MT-2 cells, over 50 µM; in the data set on human PBM cells, 52.4 µM; in the data set on HepG2 cells it was over 100 µM; in the data set on Vero cells, over 100 µM. Moreover, the EC90 with HIV-1NL4-3 was 3.1 µM; in the data set with HIV-1LAl, 1.89 µM; in the data set with HIV-1RF it was 2.4 µM.

On to `Nc1nc(=O)n([C@H]2C=C[C@@H](CO)O2)cc1F` [D-D4FC, β-D-2′,3′-Dideoxy-2′,3′-didehydro-5-fluorocytidine, reference compound], for which the IC50 in data set [1] is over 100 µM; in the data set on MT-2 cells, over 50 µM; in the data set on human PBM cells it was over 100 µM; with HepG2 cells it was over 100 µM; in the data set with Vero cells it was over 100 µM. The concentration for an effect of 90% (EC90) in the data set with HIV-1NL4-3 is 1.15 µM; in the data set on HIV-1LAl, 0.77 µM; in the data set with HIV-1RF, 1.19 µM.

Broadly, the IC50 is the concentration needed to halve the response being measured. A word on the EC90: it is the concentration at which the effect reaches the 90% level.
